“Also recorded” adds a separate entry of the source. Read-outs that look alike come from different tables or passages of the source. Positions of bridges follow the written chain, without caps; N, C: chain ends. Non-standard residues stand in square brackets, D forms with d. Residues, ends and D or L forms follow the SMILES beside them. *: point of attachment. X1 = CC[C@H](C)CCCCC(=O)*; Dab = NCC[C@H](N)C(=O)O
Legend:
[1] = Autosampler stability of processed colistin rat plasma samples at 4 °C; conditions: for Found concentration in autosampler stability study / Bias% from nominal concentration in autosampler stability study: 4 °C for 24 hours, n = 4; for Found concentration in autosampler stability study: mean ± S.D., SD
Procedure: (§1) Colistin sulfate was prepared by dissolving 5.5 mg of the powder in 5 ml water to make a stock solution of 1 mg/ml of colistin. PMB sulfate solution of 1 mg/ml was also prepared by dissolving 5.8 mg of PMB sulfate powder in 5 ml water. Both solutions were stored at −70 °C. Calibration standards and quality controls were prepared by spiking different amounts of colistin sulfate stock solution in plasma. Aliquots of colistin sulfate were further diluted to provide standard concentrations of 0.5, 1, 2, 5, 10, 15, and 20 μg/mL (equivalent to: 78, 156, 312, 780, 1560, 2340 and 3120 ng/ml of colistin A and 353, 706, 1412, 3350, 7060, 10590 and 14120 ng/ml of colistin B) whereas, the concentrations of 1.5, 3.5, 7.5 and 17.5 μg/mL (which contained 234, 546, 1170 and 2730 ng/ml of colistin A and 1059, 2471, 5295 and 12355 ng/ml of colistin B) were considered as quality controls. The calibration standards and quality controls were aliquoted (150 μL) into 0.5 ml Eppendorf tubes and stored at −70 °C pending analysis.
(§2) To 100 μl rat plasma sample, 5 μl of 500 μg/ml IS was added and followed by addition of 400 μl of 50:50 (v/v) methanol-TCA (10%). The samples were vortex-mixed for 1 min, rota-mixed for 10 min at 40 rpm and then centrifuged at 12,000 rpm for 10 min. Following centrifugation, 400 µl of the supernatant was collected and re-extracted with solid phase extraction (SPE) using SPE (Oasis HLB 1 cc, 30 mg) cartridges. First, the cartridges were conditioned with 500 μl of methanol then 500 μl of water. After that, 400 μl of the supernatant was transferred and then washed with 500 μl of water. The tubes were changed and then the samples were eluted with 150 μl of methanol: water: formic acid (80:19:1%, v/v/v) solution. The elution step was repeated twice, and then 250 μl of the solution was transferred to the low volume inserts and 20 μl of this solution was injected into the LC-MS system.
(§3) Various types of stability tests including freeze-thaw stability and long-term stability were assessed. The freeze-thaw stability test was performed by removing the four QC samples out of the storage temperature (−70 °C) and keeping them at room temperature (25 °C) until thawing and then aliquots of the samples were analyzed. After that, the samples were again returned back for freezing in the same storage conditions for 12 to 24 h. The freeze-thaw cycles were repeated five times and 4 replicates of the analytes were assayed. In addition, a long-term stability test was performed to ensure that the stability of the samples for a time that exceeds the interval between the first sample collection and the last sample analysis. Four aliquots of low, medium and high concentrations (QC) were kept for 20 days in the same temperature used to store samples regularly at the lab (−70 °C) then analyzed and compared to the nominal concentration of freshly prepared QC samples. Moreover, the stability in the autosampler (4 °C) was assessed by keeping the processed samples under this condition and assayed periodically at different times for up to 24 hours. In addition, benchtop stability test was performed by keeping the samples at room temperature (25 °C) for six hours and analyzing them during this time. The mean value results of stability tests were calculated and compared to the nominal concentrations.

[2] = rats, cited from earlier work
Text: Following the validation of the present analytical method, the method was applied to estimate the pharmacokinetic profile of colistin in experimental rats. Choosing the animal species to perform the pharmacokinetic study was based on the similarity of colistin pharmacokinetic profile between animal species and humans. […] The species that has the closest pharmacokinetic profile to humans are rats[43]–[45]. […] This is because of a distribution phase that occurs before the decline in the colistin concentration. This finding is in agreement with previous reports[43],[44],[49]. In the present study, we observed that colistin concentration declined rapidly over 180–240 min which is consistent with earlier findings[45],[49]. […] In the present study, the Vd of colistin was 2.45 ± 1.30 L/kg in ...

[3] = Pharmacokinetic study of colistin in rats after IV colistin sulfate, plasma LC-MS/MS, non-compartmental analysis; conditions: male, rat, 15 mg/kg
Procedure: as §2
Male Sprague Dawley® (MSD) rats (21 weeks ± 3 days of age) with a body weight of 450–550 g [supplied by the Animal Resource Center (ARC), Health Sciences Center (HSC), Kuwait University] were used to estimate the pharmacokinetic profile of colistin. The animals (n = 8) were housed in 12 h/12 h light/dark cycle. […] All the animals were subjected to left jugular vein cannulation, IV drug administration, and subsequent blood sampling. All surgical procedures were carried out under strict aseptic conditions. In addition, all surgical instruments and materials were autoclaved, all solutions were sterile and the surgical procedure was performed with the aid of surgical microscope (Leica wild M690). Animal body temperatures were maintained around 37.6 °C (rectal) by placing the animals on an electronic heating pad throughout the surgical procedure as well as the post-surgical recovery period. About 350 µl of rat blood sample was collected from each animal. From this sample, 50 µl of blood sample was transferred to a capillary tube, sealed with the sealant clay at one end and centrifuged to calculate the Packed Cell Volume (PCV); i.e., Hematocrit. The remaining rat blood sample (300 µl) was centrifuged at 9000 X g for 10 min and aliquots of 100 µl of plasma sample was collected and stored at −70 °C pending analysis.
Colistin was quantified in the biological samples by the present LC-MS/MS method and then the pharmacokinetic parameters (t1/2, CL, Vd, AUC) were estimated by non-compartmental method employing Kinetica® software, version 5.1 (Thermo Fisher Scientific, Waltham, USA).

[4] = Benchtop stability of colistin in rat plasma samples at room temperature; conditions: for Found concentration in benchtop stability study / Bias% from nominal concentration in benchtop stability study: 25 °C for 6 hours, n = 4; for Found concentration in benchtop stability study / benchtop (room temperature) stability (in words): LC-MS/MS; for Found concentration in benchtop stability study: mean ± S.D., SD; for benchtop (room temperature) stability (in words): rat plasma, stored for 6 hours at room temperature (25 °C)
Procedure: as §1, §2, §3

[5] = Long-term stability of colistin in rat plasma QC samples at −70 °C; conditions: 20 days; for Found concentration after long-term storage: mean ± S.D., n = 5, SD; for Bias% from nominal concentration after long-term storage: n = 5
Procedure: as §1, §2, §3

[6] = Freeze-thaw stability of colistin in rat plasma QC samples; conditions: for Found concentration after freeze-thaw / Bias% from nominal concentration after freeze-thaw: −70 °C to 25 °C after 24 hours, five cycles, n = 4; for Found concentration after freeze-thaw: mean ± S.D., SD
Procedure: as §1, §2, §3

[7] = cited from earlier work
Procedure: However, colistin sulphate has been reported to be well absorbed after an oral administration in infants. […] The standards and quality control samples concentrations were selected based on the therapeutic range of colistin. The expected colistin serum levels according to the antimicrobial reference laboratory assay service are 5–15 mg/L and 2–4 mg/L for the peak and tough concentrations, respectively. […] Choosing the animal species to perform the pharmacokinetic study was based on the similarity of colistin pharmacokinetic profile between animal species and humans. […] The species that has the closest pharmacokinetic profile to humans are rats[43]–[45].

[8] = rat plasma QC 1.5 μg/mL colistin (nominal 234 ng/ml colistin A, 1059 ng/ml colistin B)
[9] = rat plasma QC 3.5 μg/mL colistin (nominal 546 ng/ml colistin A, 2471 ng/ml colistin B)
[10] = rat plasma QC 7.5 μg/mL colistin (nominal 1170 ng/ml colistin A, 5295 ng/ml colistin B)
[11] = rat plasma QC 17.5 μg/mL colistin (nominal 2730 ng/ml colistin A, 12355 ng/ml colistin B)
[12] = rat plasma QC 1.5 μg/mL colistin (nominal 234 ng/ml colistin A, 1059 ng/ml colistin B), LC-MS/MS
[13] = rat plasma QC 3.5 μg/mL colistin (nominal 546 ng/ml colistin A, 2471 ng/ml colistin B), LC-MS/MS
[14] = rat plasma QC 7.5 μg/mL colistin (nominal 1170 ng/ml colistin A, 5295 ng/ml colistin B), LC-MS/MS
[15] = rat plasma QC 17.5 μg/mL colistin (nominal 2730 ng/ml colistin A, 12355 ng/ml colistin B), LC-MS/MS

In the case of `CC[C@H](C)CCCCC(=O)N[C@@H](CCN)C(=O)N[C@H](C(=O)N[C@@H](CCN)C(=O)N[C@H]1CCNC(=O)[C@H]([C@@H](C)O)NC(=O)[C@H](CCN)NC(=O)[C@H](CCN)NC(=O)[C@H](CC(C)C)NC(=O)[C@@H](CC(C)C)NC(=O)[C@H](CCN)NC1=O)[C@@H](C)O` [Colistin A, colistin A] (X1-[Dab]T[Dab][Dab][Dab][dL]L[Dab][Dab]T; lactam 4-C), the “Found concentration in autosampler stability study” value ([1]; processed rat plasma QC 1.5 μg/mL colistin (nominal 234 ng/ml colistin A, 1059 ng/ml colistin B), LC-MS/MS) is reported as 231.18 ± 6.22 ng/mL, the “Bias% from nominal concentration in autosampler stability study” value (“Bias% … in autosampler stability study” below) ([1]; processed rat plasma QC 1.5 μg/mL colistin (nominal 234 ng/ml colistin A, 1059 ng/ml colistin B)) is reported as −1.21% and the “Found concentration in autosampler stability study” value ([1]; processed rat plasma QC 3.5 μg/mL colistin (nominal 546 ng/ml colistin A, 2471 ng/ml colistin B), LC-MS/MS) is reported as 516.95 ± 53.28 ng/mL. For the same compound, the “Bias% … in autosampler stability study” value ([1]; processed rat plasma QC 3.5 μg/mL colistin (nominal 546 ng/ml colistin A, 2471 ng/ml colistin B)) was −5.32%, the “Found concentration in autosampler stability study” value ([1]; processed rat plasma QC 7.5 μg/mL colistin (nominal 1170 ng/ml colistin A, 5295 ng/ml colistin B), LC-MS/MS) was 1034.9 ± 38.64 ng/mL and the “Bias% … in autosampler stability study” value ([1]; processed rat plasma QC 7.5 μg/mL colistin (nominal 1170 ng/ml colistin A, 5295 ng/ml colistin B)) was −11.55%. The “Found concentration in autosampler stability study” value ([1]; processed rat plasma QC 17.5 μg/mL colistin (nominal 2730 ng/ml colistin A, 12355 ng/ml colistin B), LC-MS/MS) was 2917.93 ± 341.07 ng/mL, the “Bias% … in autosampler stability study” value ([1]; processed rat plasma QC 17.5 μg/mL colistin (nominal 2730 ng/ml colistin A, 12355 ng/ml colistin B)) was 6.88% and the “CL of the individual components” value ([2]; Sivanesan and co-workers, ref 45 (sentence ends with 41)) was 2.75 ± 0.54 mL/min/kg. For the same compound, the “t1/2 of the major components” value [2] was 1.37 ± 0.515 h, the level at 0.5 h ([3]; Sprague Dawley) was 4110 ng/mL and the “Found concentration in benchtop stability study” value [4, 8] was 120.275 ± 50.32 ng/mL. For the same compound, the “Bias% from nominal concentration in benchtop stability study” value (from here on “Bias% … in benchtop stability study”) [4, 8] was −48.6%, the “Found concentration in benchtop stability study” value [4, 9] was 592.47 ± 488.56 ng/mL and the “Bias% … in benchtop stability study” value [4, 9] was 8.51%. For the same compound, the “Found concentration in benchtop stability study” value [4, 10] was 1047.6 ± 202.94 ng/mL, the “Bias% … in benchtop stability study” value [4, 10] was −10.46% and the “Found concentration in benchtop stability study” value [4, 11] was 5045 ± 3076.10 ng/mL. The “Bias% … in benchtop stability study” value [4, 11] was 84.8%, the “Found concentration after long-term storage” value [5, 12] was 237.24 ± 5.64 ng/mL and the “Bias% from nominal concentration after long-term storage” value (“Bias% … after long-term storage” below) [5, 8] was 1.39%. The “Found concentration after long-term storage” value [5, 13] was 520.76 ± 19.46 ng/mL, the “Bias% … after long-term storage” value [5, 9] was −4.62% and the “Found concentration after long-term storage” value [5, 14] was 1134.44 ± 26.11 ng/mL. The “Bias% … after long-term storage” value [5, 10] was −3.04%, the “Found concentration after long-term storage” value [5, 15] was 2719 ± 50.20 ng/mL and the “Bias% … after long-term storage” value [5, 11] was −0.40%. For the same compound, the “Found concentration after freeze-thaw” value [6, 12] was 265.4 ± 35.10 ng/mL, the “Bias% from nominal concentration after freeze-thaw” value (shortened to “Bias% … after freeze-thaw”) [6, 8] was 13.42% and the “Found concentration after freeze-thaw” value [6, 13] was 615.27 ± 30.29 ng/mL. For the same compound, the “Bias% … after freeze-thaw” value [6, 9] was 12.69%, the “Found concentration after freeze-thaw” value [6, 14] was 1208.93 ± 77.51 ng/mL and the “Bias% … after freeze-thaw” value [6, 10] was 3.33%. The “Found concentration after freeze-thaw” value [6, 15] was 2551.83 ± 177.97 ng/mL and the “Bias% … after freeze-thaw” value [6, 11] was −6.53%.

In the case of `CC[C@H](C)CCCCC(=O)N[C@@H](CCN)C(=O)N[C@H](C(=O)N[C@@H](CCN)C(=O)N[C@H]1CCNC(=O)[C@H]([C@@H](C)O)NC(=O)[C@H](CCN)NC(=O)[C@H](CCN)NC(=O)[C@H](CC(C)C)NC(=O)[C@@H](CC(C)C)NC(=O)[C@H](CCN)NC1=O)[C@@H](C)O` [colistin] (X1-[Dab]T[Dab][Dab][Dab][dL]L[Dab][Dab]T; lactam 4-C), the “deviation of result at each level from nominal concentration in the autosampler” value ([1]; autosampler environment, 4 °C) is listed as no more than 15%, the “autosampler stability (in words)” value ([1]; processed samples, autosampler 4 °C, up to 24 hours, LC-MS/MS) is listed as “stable; also recorded: acceptable” and the t1/2 ([2]; another study) is listed as 0.928 ± 0.322 h. The t1/2 ([2]; dose ranging study, dose 15 mg/kg) was 0.54 ± 0.0833 h, the Vd ([2]; earlier report) was 0.50 ± 0.06 L/kg and the “AUC0-∞” value ([2]; mean ± S.D., other investigators, SD) was 2600 ± 470 ng·h/mL. The “total body clearance (CL)” value ([2]; reported by other investigators) was 11.7 ± 1.8 mL/min/kg, the CLR [2] was 5.2 ± 0.4 mL/min/kg and the Vd [2] was 0.496 ± 0.06 L/kg. For the same compound, the t1/2 [2] was 1.24 ± 0.22 h, the clearance ([3]; Sprague Dawley (MSD), SD) was 25.5 ± 10.6 mL/min/kg and the AUC(0-inf) ([3]; Sprague Dawley, SD) was 10500 ng·h/mL. For the same compound, the Vd ([3]; Sprague Dawley, SD) was 2.45 ± 1.29 L/kg, the half-life ([3]; Sprague Dawley, SD) was 1.07 ± 0.605 h and the “benchtop (room temperature) stability (in words)” value [4] was “in-stability”. The “benchtop (room temperature) stability (in words)” value ([4]; listed as Colistin) was “not stable”, the minimum concentration ([7]; Markou and colleagues, steady state) was 1.03 ± 0.44 mg/L and the “maximum steady state concentration” value ([7]; Markou and colleagues) was 2.93 ± 1.24 mg/L. For the same compound, the elimination half-life ([7]; colistin, eliminated extra-renally) was 3 h, the Vd ([7]; humans) was 12.4 L and the t1/2 ([7]; humans) was 3 h. The “long-term stability (in words)” value ([5]; rat plasma, LC-MS/MS) was “stable; also recorded: acceptable”, the “deviation of resulting concentrations from nominal after freeze-thaw” value ([6]; plasma samples, five freeze-thaw cycles, −70 °C to room temperature) was no more than 15% and the “freeze-thaw stability (in words)” value ([6]; rat plasma, five freeze-thaw cycles, −70 °C to room temperature, LC-MS/MS) was “stable; also recorded: acceptable”.

Source: publication PMC7234998, “Quantification of Colistin in Plasma by Liquid Chromatography-Tandem Mass Spectrometry: Application to a Pharmacokinetic Study” (Scientific Reports, 2020)
